# Patent US12331056B2, “SHP2 phosphatase inhibitors and methods of use thereof” (Relay Therapeutics, Inc., priority 2018, dated 2025)
# Structures can show the parent of a compound that is named as a salt.
# Biological target: T1, SHP2 (Homo sapiens, UniProt Q06124)
# T1 sequence (Q06124 1-593): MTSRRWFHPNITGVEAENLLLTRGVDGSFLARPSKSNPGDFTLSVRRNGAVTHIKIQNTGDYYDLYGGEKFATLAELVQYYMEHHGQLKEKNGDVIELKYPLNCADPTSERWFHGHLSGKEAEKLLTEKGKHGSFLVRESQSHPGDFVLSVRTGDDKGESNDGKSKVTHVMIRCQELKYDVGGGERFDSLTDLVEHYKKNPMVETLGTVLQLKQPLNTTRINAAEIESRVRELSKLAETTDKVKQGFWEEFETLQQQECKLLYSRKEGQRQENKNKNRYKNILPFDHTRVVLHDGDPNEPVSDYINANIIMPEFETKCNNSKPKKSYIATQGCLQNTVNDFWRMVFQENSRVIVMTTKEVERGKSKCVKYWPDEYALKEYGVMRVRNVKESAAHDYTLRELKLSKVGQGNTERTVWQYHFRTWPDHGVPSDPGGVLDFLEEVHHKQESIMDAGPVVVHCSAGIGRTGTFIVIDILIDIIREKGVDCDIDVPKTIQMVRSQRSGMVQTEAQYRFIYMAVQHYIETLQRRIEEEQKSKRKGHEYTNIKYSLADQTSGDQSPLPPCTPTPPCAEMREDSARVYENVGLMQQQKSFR
# Experiment: SHP2 allosteric inhibition assay (DiFMUP prompt fluorescence)
# Type: biochemical
# Conditions: 0.25 nM SHP2 activated with 0.5 μM peptide IRS1_pY1172(dPEG8)pY1222; substrate DiFMUP 100 μM
row,IC50,SMILES
1,50 to 1000 nM,"Cc1nc(N2CCC3(CC2)Cc2ccccc2[C@@H]3N)c(CO)nc1-c1cccc(Cl)c1Cl (single isomer, unassigned) [Example 19]"
2,50 to 1000 nM,"N[C@H]1c2ccccc2CC12CCN(c1cnc3c(-c4ccnc(Cl)c4F)n[nH]c3n1)CC2 (single isomer, unassigned) [Example 66]"
3,1000 to 10000 nM,"N#Cc1cccc2c1CC1(CCN(c3cnc4c(N5CCCc6ncccc65)n[nH]c4n3)CC1)[C@H]2N (single isomer, unassigned) [Example 116]"
4,1000 to 10000 nM,"N[C@@H]1c2ccccc2C[C@]12CC[C@@H](c1cnc3c(N4CCCc5ncccc54)n[nH]c3n1)CC2 (single isomer, unassigned) [Example 191, (1r, 3′S, 4S)-4-[3-(1,2,3,4-tetrahydro-1,5-naphthyridin-1-yl)-1H-pyrazolo[3,4-b]pyrazin-6-yl]-1′,3′-dihydrospiro[cyclohexane-1,2′-inden]-3′-amine]"
5,> 10000 nM,"C[C@H](O)c1nc(Sc2ccnc(Cl)c2Cl)cnc1N1CCC2(CC1)Cc1ccccc1[C@H]2N (single isomer, unassigned) [Example 260]"
6,1000 to 10000 nM,"N[C@@H]1c2ccccc2C[C@]12CC[C@H](c1cnc(Sc3ccnc(Cl)c3Cl)cn1)CC2 (single isomer, unassigned) [Example 275, (1s, 3′S, 4R)-4-{5-[(2,3-dichloropyridin-4-yl)sulfanyl]pyrazin-2-yl}-1′,3′-dihydrospiro[cyclohexane-1,2′-inden]-3′-amine]"
7,50 to 1000 nM,"NC1c2ccccc2CC12CCC(c1cnc(SCC3CC3)cn1)CC2 (single isomer, unassigned) [Example 284, (1s, 1′R, 4S)-4-(5-((cyclopropylmethyl)thio)pyrazin-2-yl)-1′,3′-dihydrospiro[cyclohexane-1,2′-inden]-1′-amine]"
8,< 50 nM,"C[C@H](C(=O)N1CCC2(CC1)Cc1ccccc1[C@H]2N)c1ccc(F)cc1 (single isomer, unassigned) [Example 290]"
9,50 to 1000 nM,Nc1nccc(Sc2ncc(N3CCC4(CC3)Cc3ccccc3[C@H]4N)cn2)c1Cl [Example 63]
10,50 to 1000 nM,Cn1cnc2c(N3CCC4(CC3)Cc3ccccc3[C@H]4N)nccc21 [Example 184]
11,> 10000 nM,N[C@@H]1c2ccccc2C[C@@]12C[C@H]1CC[C@@H](C2)N1c1cnc2c(N3CCCc4ncccc43)n[nH]c2n1 [Example 227]
12,> 10000 nM,Nc1nccc(Sc2cnc(N3[C@@H]4CC[C@H]3C[C@]3(Cc5ccccc5[C@H]3N)C4)cn2)c1Cl [Example 231]
13,< 50 nM,Nc1nccc(Sc2cnc(N3[C@@H]4CC[C@H]3C[C@]3(C4)Oc4ccccc4[C@H]3N)cn2)c1Cl [Example 232]
14,< 50 nM,"Cc1cnc2sc(N3CCC4(CC3)Cc3ccccc3[C@H]4N)nn12 [Example 293, (S)-1′-(5-methylimidazo[2,1-b][1,3,4]thiadiazol-2-yl)-1,3-dihydrospiro[indene-2,4′-piperidin]-1-amine]"

row,SMILES,IC50
1,"CC(C)Sc1cnc(N2CCC3(CC2)Cc2ccccc2[C@H]3N)cn1 [Example 248, (3S)-1′-[5-(propan-2-ylsulfanyl)pyrazin-2-yl]-1,3-dihydrospiro[indene-2,4′-piperidin]-3-amine]",< 50 nM
2,"N[C@@H]1c2ccccc2CC12CCN(c1ccc(SCC3CC3)nc1)CC2 [Example 272, (S)-1′-(6-((cyclopropylmethyl)thio)pyridin-3-yl)-1,3-dihydrospiro[indene-2,4′-piperidin]-1-amine formate]",< 50 nM
